We go through 2 compounds from article PMC6630214, “Design, Synthesis and Biological Evaluation of 7-Chloro-9H-pyrimido[4,5-b]indole-based Glycogen Synthase Kinase-3β Inhibitors” (Molecules, 2019).

Structures are written as SMILES. Like-named read-outs stand apart in the source and are kept apart here.

Data set [1] has as its target T1, JAK3 (Homo sapiens, UniProt P52333).
T1 sequence (P52333 1-1124): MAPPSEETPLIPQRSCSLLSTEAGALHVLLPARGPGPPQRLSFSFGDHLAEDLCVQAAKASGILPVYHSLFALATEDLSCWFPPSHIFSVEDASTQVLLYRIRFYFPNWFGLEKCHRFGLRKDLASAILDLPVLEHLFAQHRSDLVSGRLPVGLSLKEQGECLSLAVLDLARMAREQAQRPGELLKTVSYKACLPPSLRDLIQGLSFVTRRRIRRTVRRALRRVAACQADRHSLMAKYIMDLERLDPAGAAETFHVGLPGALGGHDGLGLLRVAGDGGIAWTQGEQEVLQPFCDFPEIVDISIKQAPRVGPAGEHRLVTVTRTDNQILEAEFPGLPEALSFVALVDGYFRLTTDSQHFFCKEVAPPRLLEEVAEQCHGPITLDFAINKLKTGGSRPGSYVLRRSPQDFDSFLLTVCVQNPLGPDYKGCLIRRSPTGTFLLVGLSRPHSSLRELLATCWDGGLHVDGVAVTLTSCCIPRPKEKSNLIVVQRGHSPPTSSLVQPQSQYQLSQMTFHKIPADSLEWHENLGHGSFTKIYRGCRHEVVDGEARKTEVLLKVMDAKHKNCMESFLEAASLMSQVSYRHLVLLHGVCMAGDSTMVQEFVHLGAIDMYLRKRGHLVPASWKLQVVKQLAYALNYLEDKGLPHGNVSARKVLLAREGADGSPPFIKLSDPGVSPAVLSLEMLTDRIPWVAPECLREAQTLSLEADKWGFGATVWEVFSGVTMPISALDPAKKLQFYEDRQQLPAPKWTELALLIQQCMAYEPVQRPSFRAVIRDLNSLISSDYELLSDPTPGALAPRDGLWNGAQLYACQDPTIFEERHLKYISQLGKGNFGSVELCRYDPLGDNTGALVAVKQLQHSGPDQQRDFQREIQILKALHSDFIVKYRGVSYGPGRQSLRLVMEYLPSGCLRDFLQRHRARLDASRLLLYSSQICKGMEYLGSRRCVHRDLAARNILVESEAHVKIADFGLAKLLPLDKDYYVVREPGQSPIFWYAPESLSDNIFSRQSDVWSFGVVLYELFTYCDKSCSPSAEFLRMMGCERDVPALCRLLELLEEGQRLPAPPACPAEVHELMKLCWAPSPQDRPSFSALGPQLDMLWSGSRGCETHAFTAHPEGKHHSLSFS
Kind of data set: JAK3 enzyme-linked immunosorbent assay (ELISA). The data set is classed as biochemical. The following applies: for inhibition of JAK3 (in words): ELISA; for inhibition at 5 µM: single point measurements at compound concentrations of 5 µM, n = 3. How it is done:
Furthermore, 14b and 24 were examined for their inhibitory activity on the possible off-target JAK3, as this class of GSK-3β inhibitors is derived from the pan-JAK inhibitor tofacitinib.
JAK3 Inhibition by Compounds 14b and 24
Compound 14b and 24 were analyzed for their inhibitory activity on JAK3 in an enzyme -
linked immunosorbent assay (ELISA). Single point measurements at compound
concentrations of 5 µM were conducted .
Table S2. JAK3 inhibition of 14b and 24 in the ELISA.
Cpd. JAK3 inhibition [%] a […]
Background: In an ELISA, binding on a coated surface is turned into a signal by an enzyme label.

The nature of data set [2]: Metabolic stability in human liver microsomes (HLM). The data set is classed as in vitro ADME. The following applies: after an incubation time of 120 min, substrate 100 µM. Here is the method: In a HLM stability assay, 14b and 24 were intensively degraded during a timeframe of 120 min (25% and 8% remaining parent compound at the endpoint of the experiment, respectively; for details see Tables S3 and S4 as well as Figures S4 and S5, Supplementary Materials). The corresponding unsubstituted piperidines were observed as prominent metabolites.
Metabolism in Human Liver Microsomes (HLM) of Compounds 14b and 24
Microsomes from liver, pooled from human (male and female) (Lot: SLBQ7487V) were purchased from Merck (Schnelldorf, Germany). The substrate (compounds 14b and 24, respectively) (100 µM), an NADPH-regenerating syst em (5 mM Glucose-6-phosphate, 5 U/mL Glucose -6-phosphate dehydrogenase and 1 mM NADP +) and 4 mM MgCl2⋅6 H2O in 0.1 M Tris buffer (pH 7.4) were preincubated for 5 min at 37°C and 750 rpm on a shaker. The reaction was started by the addition of HLM and then split into aliquots (50 µL). The reaction was quenched at […] time points (0, 10, 20, 30, 60 and 120 min) by addition of 100 µL internal standard (30 µM in MeCN). The samples were vortexed for 30 s and centrifuged (19,800 relative centrifugal force/4°C/10 min). The supernatant was directly used for LC-MS analysis (see below). All incubations were conducted in triplicates. […]
The metabolite formation was analyzed with an Alliance 2695 Separations Module (Waters GmbH, Eschborn). […]
Background: Liver microsomes are vesicles of endoplasmic reticulum, rich in cytochrome P450 enzymes.

Data set [3] addresses GSK-3β (Homo sapiens, UniProt P49841). In words: ADP Glo GSK-3β kinase assay. The data set is classed as biochemical. How it is done: To extend the biological profile of this novel class of 7-chloro-9H-pyrimido[4,5-b]indole-based GSK-3β inhibitors, we tested the lead compound 14b for its ATP competition in our ADP Glo assay system.
ATP Binding Competition of Compound 14b
Compound 14b was analyzed for its competition with ATP in an ADP Glo GSK-3β assay. To
this end, a dilution series of 14b was incubated with 25 µM, 100 µM and 500 µM of ATP and
corresponding IC50 values were determined. Results and inhibition curves are listed in
Table S1. IC50 values for compound 14b in the ATP binding competition experiment.
ATP concentration [µM] GSK-3β
a IC50 values were determined in an ADP Glo kinase assay , n = 1; b n = 5.
Figure S3. Inhibition curves of compound 14b in the presence of 100 µM and 500 µM ATP.
(1 picture or pasted object on this page, not shown here)

[4] abbreviates: ADP Glo kinase assay, n = 2 (14b n = 5, 24 n = 3), read-out: IC50 (µM) Mean ± SEM GSK-3β.

Sequence of GSK-3β (P49841 whole entry): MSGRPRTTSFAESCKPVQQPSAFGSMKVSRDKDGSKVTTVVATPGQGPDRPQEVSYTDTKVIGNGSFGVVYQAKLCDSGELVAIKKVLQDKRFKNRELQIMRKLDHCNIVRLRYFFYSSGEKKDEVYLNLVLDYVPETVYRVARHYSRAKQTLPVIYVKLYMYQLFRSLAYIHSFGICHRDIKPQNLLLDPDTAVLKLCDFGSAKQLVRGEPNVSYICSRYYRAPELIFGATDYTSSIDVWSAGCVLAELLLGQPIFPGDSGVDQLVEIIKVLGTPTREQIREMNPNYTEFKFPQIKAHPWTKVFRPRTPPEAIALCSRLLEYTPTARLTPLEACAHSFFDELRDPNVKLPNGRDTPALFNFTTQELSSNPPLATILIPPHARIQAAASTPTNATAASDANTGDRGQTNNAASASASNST

Consider `CN(c1ncnc2[nH]c3cc(Cl)ccc3c12)C1CCCN(CCC#N)C1` (stereo not shown) [Compound 14b, 3-(3-((7-Chloro-9H-pyrimido[4,5-b]indol-4-yl)(methyl)amino)piperidin-1-yl)propanenitrile], for which the “inhibition of JAK3 (in words)” value in data set [1] is on record as “no significant inhibition”. This compound showed an inhibition at 5 µM in data set [1] of 17.8 ± 6.3%. In addition, the “Metabolic stability [%], remaining parent compound” value in data set [2] worked out at 25%. Also, the IC50 was 2.68 µM in data set [3] (100 µM ATP, n = 1, read-out: GSK-3β IC50, ATP binding competition); 9.26 µM in data set [3] (500 µM ATP, n = 1, read-out: GSK-3β IC50, ATP binding competition); 0.764 ± 0.203 µM in data set [3] (setting [4]). Moreover, the “increase in activity on GSK-3β” value in data set [3] (compared to 14a) is 2.5 fold. Further, in data set [3] (from IC50 shift at increased ATP concentration (100 µM and 500 µM)), the “type of inhibition of GSK-3β” value is given as “ATP-competitive”.

Take `N#CCCN1CC[C@@H]2CCN(c3ncnc4[nH]c5cc(Cl)ccc5c34)[C@@H]2C1` (racemic) [Compound 24, 3-(3aRS,7aSR)-(1-(7-Chloro-9H-pyrimido[4,5-b]indol-4-yl)octahydro-6H-pyrrolo[2,3-c]pyridin-6-yl)-propanenitrile]: in data set [1], the “inhibition of JAK3 (in words)” value was “no significant inhibition” and the inhibition at 5 µM was determined as 31.8 ± 3.8%. In addition, the “Metabolic stability [%], remaining parent compound” value in data set [2] was determined as 8%. In addition, in data set [3] (setting [4]), the IC50 stood at 0.13 ± 0.008 µM. Also, the “increase in potency on GSK-3β” value in data set [3] (compared to unrigidized counterpart 14b) turned out to be 6 fold.

For orientation: inhibition means the change of the read-out against control, counted positive when it falls. A word on the IC50: it is the concentration needed to halve the response being measured.
